In patent US8546091B2, “AKT phosphorylation at Ser473 as an indicator for taxane-based chemotherapy” (The United States of America, as represented by the …, priority 2009, dated 2013):
Where two headings read alike, the source gives them in different places.

Key:
[1] = test system: node-positive breast cancer; conditions: NSABP B-28, Mamounas et al. 2005; paclitaxel after AC vs AC alone; cited from earlier work
cancer cells = conditions: literature (MacKeigan 2002; Asakuma 2003); cited from earlier work
[2] = test system: Akt phosphorylation at serine 473; conditions: literature (MacKeigan 2002; Asakuma 2003); cited from earlier work
[3] = test system: node-positive breast cancer; format: in vivo, human
Excerpt: We designed and conducted a study to correlate Akt phosphorylation with clinical outcome through the primary tumor specimens from the National Surgical Adjuvant Breast and Bowel Project B-28 trial. We tested the hypothesis that phosphorylation of Akt at serine 473 (“pAkt”) predicts a benefit for women with node-positive breast cancer from the sequential addition of paclitaxel after adjuvant doxorubicin plus cyclophosphamide chemotherapy.
Eligible patients signed an approved informed consent which includes tissue collection and research use of collected tissue conforming to federal and institutional guidelines. In this study, the biomarker protocol for the evaluation of Akt phosphorylation in association with disease-free survival and overall survival in patients with node-positive breast cancer treated with either adjuvant doxorubicin plus cyclophosphamide only or followed by paclitaxel was approved by the Institutional Review Boards of the National Cancer institute (Bethesda, Md.) and the National Surgical Adjuvant Breast and Bowel Project (Pittsburgh, Pa.).
HER2 status on the microarray sections were determined by the NSABP central pathology laboratory using PathVision fluorescent in situ hybridization (FISH) assay according to the FDA approved protocol per the manufacturer (Vysis, Downers Grove. Ill.). Data were expressed as the number of HER2 genes per chromosome 17 centromere: tumors with a ratio of […] were classified as HER2-positive, and those with a ratio of <2 were defined as HER2-negative. Estrogen receptor status in tissue microarray sections were also determined by the NSABP central pathology laboratory by immunohistochemistry according to the FDA approved protocol provided by DAKO (PharmDx kit; Carpinteria, Calif.). A positive result (tumor cell nuclear staining) for ER is defined as a total score (ranging from 0, 2-8) of ≧3. The total score is the sum of a proportion score from 0 to 5 and an intensity score of 0 to 3.
Sections were incubated with primary antibody in 1 to 100 dilution for 1 hour at room temperature, and binding of the antibody to its antigenic sites was amplified using Vectastain Elite avidin-biotin peroxidase complex kits (Vector Laboratories, Burlingame, Calif.). The antigen-antibody reaction sites were visualized using 3,3-diaminobenzidine for 7 minutes and, subsequently, sections were counterstained with Mayer's hematoxylin. Breast cancer cell line MDA-MB-468 which expresses pAkt, and a breast cancer specimen known to express pAkt were utilized as positive controls. Negative control was performed using isotype immunoglobulins appropriate to the primary antibodies being used (Zymed Laboratories, South San Francisco, Calif.). The immunostained tissue microarray cores with either cytoplasmic or membranous or nuclear signal were analyzed with the assistance of an Automated Cellular Imaging System (DAKO), blinded to all clinical information, after excluding tissue cores with less than 5% of invasive tumor cells present. The staining intensity and percentage of tumor cells on each tissue core was calculated by the digital imaging system. The staining index ranging from 0 to 62.8 reporting levels of Akt phosphorylation at Ser473 was determined by the percentage multiplied by intensity of staining divided by 100 (intensity X percentage/100) in tumor cells, in which the intensity was subtracted from the average tissue readout of three normal tissue cores. These cores serve as the position markers and tissue negative controls for each array slide.

## CC(=O)O[C@H]1C(=O)[C@@]2(C)[C@H]([C@H](OC(=O)c3ccccc3)[C@]3(O)C[C@H](OC(=O)[C@H](O)[C@@H](NC(=O)c4ccccc4)c4ccccc4)C(C)=C1C3(C)C)[C@]1(OC(C)=O)CO[C@@H]1C[C@@H]2O [paclitaxel]
[1]
  effect on disease-free and overall survival: significantly improve disease-free survival but not overall survival
Cancer cells
  effect on survival of cancer cells: reduces the survival cancer cells
[2]
  effect on Akt phosphorylation at serine 473: inhibits Akt phosphorylation at serine 473
[3]; 606 patients with pAkt positive cancer, with vs without paclitaxel, FIG. 1B, P=0.027
  hazard ratio for disease-free survival: 0.75
[3]; 975 patients with pAkt-negative cancer, with vs without paclitaxel, FIG. 1A, P=0.44
  hazard ratio for disease-free survival: 1.08
[3]; 1581 patients with pAkt measurement, follow-up 9.1 years, 95% CI 0.79-1.15, P=0.63
  hazard ratio for overall survival: 0.96
[3]; 1581 patients with pAkt measurement, follow-up 9.1 years, 95% CI 0.81-1.10, P=0.46
  hazard ratio for disease-free survival: 0.94
[3]; entire B-28 population with pAkt-Ser473 measurements, positive or negative, approximate 10 years of follow-up
  improvement in disease-free survival: 6%
[3]; entire B-28 population, approximate 10 years of follow-up, addition of paclitaxel to AC vs AC, 95% CI 0.81-1.06, P=0.25
  hazard ratio for overall survival: 0.92
[3]; entire B-28 population, approximate 10 years of follow-up, sequential addition of paclitaxel to AC vs AC, 95% CI 0.79 to 0.99, P=0.034
  hazard ratio for disease-free survival: 0.89
[3]; pAkt negative cancer, multivariate proportional-hazards model, FIG. 1C, P=0.81
  adjusted hazard ratio for disease-free survival: 1.02
[3]; pAkt positive breast cancer, multivariate proportional-hazards model, FIG. 1C, P=0.02
  adjusted hazard ratio for disease-free survival: 0.74
[3]; pAkt-negative cancer, P=0.74
  hazard ratio for overall survival: 1.04
[3]; pAkt-negative, HER2-negative tumors, FIG. 3C, P=0.36
  adjusted hazard ratio for disease-free survival: 1.12
[3]; pAkt-negative, HER2-positive tumors, FIG. 3A, P=0.88
  adjusted hazard ratio for disease-free survival: 0.96
[3]; pAkt-negative, estrogen-receptor positive tumors, FIG. 2A, P=0.64
  adjusted hazard ratio for disease-free survival: 1.06
[3]; pAkt-negative, estrogen-receptor-negative tumors, FIG. 2C, P=0.79
  adjusted hazard ratio for disease-free survival: 1.04
[3]; pAkt-positive breast cancer, sequential addition of paclitaxel
  improvement in disease-free survival: 26%
[3]; pAkt-positive cancer, P=0.226
  hazard ratio for overall survival: 0.83
[3]; pAkt-positive, HER2-negative tumors, FIG. 3D, P=0.03
  adjusted hazard ratio for disease-free survival: 0.70
[3]; pAkt-positive, HER2-positive tumors, FIG. 3B, P=0.28
  adjusted hazard ratio for disease-free survival: 0.72
[3]; pAkt-positive, estrogen receptor-negative tumors, FIG. 2D, P=0.052
  adjusted hazard ratio for disease-free survival: 0.66
[3]; pAkt-positive, estrogen receptor-positive tumors, FIG. 2B, P=0.24
  adjusted hazard ratio for disease-free survival: 0.82
